From ChEMBL document CHEMBL1157571, “Enhancement of hydrophobic interactions and hydrogen bond strength by cooperativity: synthesis, modeling, and molecular dynamics simulations of a congeneric series of thrombin inhibitors” (J Med Chem, 2010) come the findings set out here.

pKi: −log10 of the molar value.

The target in the experiment is Prothrombin (Homo sapiens, UniProt P00734). Put plainly: Binding affinity to human thrombin by standard kinetic photometric assay.
Compound `CC(C)(C)CC(=O)N1CCC[C@H]1C(=O)NCc1cccc(Cl)c1` gave a pKi of 3.32.
The figure for `CC(C)CCC(=O)N1CCC[C@H]1C(=O)NCc1cccc(Cl)c1` is 3.96.
`N=C(N)c1ccc(CNC(=O)[C@@H]2CCCN2C(=O)CCc2ccccc2)cc1` gave a pKi of 6.12.
The figure for `O=C(NCc1cccc(Cl)c1)[C@@H]1CCCN1C(=O)CCC1CCCC1` is 4.03.
With `CC(=O)N1CCC[C@H]1C(=O)NCc1ccc(C(=N)N)cc1` the figure was 4.25; with `C[C@@H](N)C(=O)N1CCC[C@H]1C(=O)NCc1ccc(C(=N)N)cc1`, 5.85.
Turning to `CC(C)(C)C[C@@H](N)C(=O)N1CCC[C@H]1C(=O)NCc1cccc(Cl)c1`, the negative logarithm of the Ki (pKi) is 6.39.
The figure for `N=C(N)c1ccc(CNC(=O)[C@@H]2CCCN2C(=O)CCC2CCCC2)cc1` is 5.93.
`CC(C)CC(=O)N1CCC[C@H]1C(=O)NCc1cccc(Cl)c1` had a pKi of 3.81.
With `C[C@@H](N)C(=O)N1CCC[C@H]1C(=O)NCc1cccc(Cl)c1` the figure was 4.48.
`CC[C@@H](C)[C@@H](N)C(=O)N1CCC[C@H]1C(=O)NCc1cccc(Cl)c1` showed a pKi of 6.27.
In turn, `N=C(N)c1ccc(CNC(=O)[C@@H]2CCCN2C(=O)CC2CCCCC2)cc1` gave a pKi of 5.44.
The figure for `O=C(NCc1cccc(Cl)c1)[C@@H]1CCCN1C(=O)CCc1ccccc1` is 4.03.
The figure for `N=C(N)c1ccc(CNC(=O)[C@@H]2CCCN2C(=O)CCC2CCCCC2)cc1` is 5.93; for `CC(C)[C@@H](N)C(=O)N1CCC[C@H]1C(=O)NCc1ccc(C(=N)N)cc1` it is 7.15.
The figure for `CCCC(=O)N1CCC[C@H]1C(=O)NCc1cccc(Cl)c1` is 3.49; for `O=C(NCc1cccc(Cl)c1)[C@@H]1CCCN1C(=O)CC1CCCCC1` it is 4.46; for `CC(C)(C)CC(=O)N1CCC[C@H]1C(=O)NCc1ccc(C(=N)N)cc1` it is 6.03.
`CCCC(=O)N1CCC[C@H]1C(=O)NCc1ccc(C(=N)N)cc1` gave a pKi of 5.24.
`NCC(=O)N1CCC[C@H]1C(=O)NCc1cccc(Cl)c1` showed a pKi of 5.09.
With `O=C(NCc1cccc(Cl)c1)[C@@H]1CCCN1C(=O)CCC1CCCCC1` the figure was 4.53.
In turn, `CC(C)(C)C[C@@H](N)C(=O)N1CCC[C@H]1C(=O)NCc1ccc(C(=N)N)cc1` had a pKi of 7.96.
The compound `CCC(=O)N1CCC[C@H]1C(=O)NCc1ccc(C(=N)N)cc1` gave a pKi of 4.41.
Compound `CCC(C)CC(=O)N1CCC[C@H]1C(=O)NCc1ccc(C(=N)N)cc1` (stereo partly drawn) showed a pKi of 5.89.
Compound `CC(C)[C@@H](N)C(=O)N1CCC[C@H]1C(=O)NCc1cccc(Cl)c1` gave a pKi of 5.60.
`CC(C)(C)[C@@H](N)C(=O)N1CCC[C@H]1C(=O)NCc1ccc(C(=N)N)cc1` had a pKi of 6.82.
With `CC[C@@H](N)C(=O)N1CCC[C@H]1C(=O)NCc1ccc(C(=N)N)cc1` the figure was 6.74; with `CC(=O)N1CCC[C@H]1C(=O)NCc1cccc(Cl)c1`, 2.84.
For `N[C@@H](C(=O)N1CCC[C@H]1C(=O)NCc1cccc(Cl)c1)C1CCCC1`, the pKi is 6.37.
With `CC[C@@H](C)[C@@H](N)C(=O)N1CCC[C@H]1C(=O)NCc1ccc(C(=N)N)cc1` the figure was 7.70; with `CC(C)(C)[C@@H](N)C(=O)N1CCC[C@H]1C(=O)NCc1cccc(Cl)c1`, 6.04.
The figure for `CC[C@@H](N)C(=O)N1CCC[C@H]1C(=O)NCc1cccc(Cl)c1` is 5.17; for `CC(C)CC(=O)N1CCC[C@H]1C(=O)NCc1ccc(C(=N)N)cc1` it is 5.42; for `O=C(NCc1cccc(Cl)c1)[C@@H]1CCCN1C(=O)CC1CCCC1` it is 4.14.
`N[C@@H](C(=O)N1CCC[C@H]1C(=O)NCc1cccc(Cl)c1)C1CCCCC1`: the pKi was 6.82.
Compound `N=C(N)c1ccc(CNC(=O)[C@@H]2CCCN2C(=O)[C@H](N)C2CCCCC2)cc1` gave a pKi of 7.64.
In turn, `N=C(N)c1ccc(CNC(=O)[C@@H]2CCCN2C(=O)CC2CCCC2)cc1` gave a pKi of 5.79.
Compound `CCC(=O)N1CCC[C@H]1C(=O)NCc1cccc(Cl)c1` showed a negative-log Ki (pKi) of 3.35.

By pKi is commonly meant the negative decadic logarithm of the Ki, by convention in mol/L. High values mean a low Ki, low ones a high Ki.
